{"source": "patent US10105357B2", "about": "“Indication of antibiotic drugs for preparation of cancer inhibition pharmaceutical composition” (LAUNX BIOMEDICAL CO., LTD., priority 2014, dated 2018)", "format_in_all_cases": "cell-based, human", "key": {"[1]": {"system": "cancer cell lines", "assay": "Cell viability analysis (WST-1) on cancer cell lines", "settings": "drug 10 μM, 72 hours, WST-1; Table 3"}, "[2]": {"system": "AGS (Gastric Adenocarcinoma)", "assay": "Cell viability analysis, gastric cancer AGS", "settings": "for viability at 10 µM: Homo sapiens"}, "[3]": {"system": "MCF7 (Mammary Gland, Adenocarcinoma)", "assay": "Cell viability analysis, breast cancer MCF7", "settings": "for viability at 10 µM: Homo sapiens"}, "[4]": {"system": "A549 (Lung Adenocarcinoma)", "assay": "Cell viability analysis, lung cancer A549", "settings": "for viability at 10 µM: Homo sapiens"}, "[5]": {"system": "HeLa (Cervix Adenocarcinoma)", "assay": "Cell viability analysis, cervical cancer HeLa", "settings": "for viability at 10 µM: Homo sapiens, HeLa"}, "[6]": {"system": "HepG2 (Hepatocellular Carcinoma)", "assay": "Cell viability analysis, hepatic cancer HepG2", "settings": "for viability at 10 µM: Homo sapiens"}, "[7]": {"system": "LoVo (Colorectal Adenocarcinoma)", "assay": "Cell viability analysis, colon cancer LoVo", "settings": "for viability at 10 µM: Homo sapiens, LoVo"}, "[8]": {"system": "HI650 (Lung Adenocarcinoma)", "assay": "Cell viability analysis, lung cancer HI650", "settings": "for viability at 10 µM: Homo sapiens"}, "[9]": {"system": "PC3 (p53−) (Prostate Adenocarcinoma)", "assay": "Cell viability analysis, prostate cancer PC3", "settings": "for viability at 10 µM: Homo sapiens"}, "[10]": {"system": "TSGH-8301 (Urinary Bladder Carcinoma)", "assay": "Cell viability analysis, bladder cancer TSGH-8301", "settings": "for viability at 10 µM: Homo sapiens"}, "[11]": {"system": "A375 (Amelanotic Melanoma)", "assay": "Cell viability analysis, skin cancer A375", "settings": "for viability at 10 µM: Homo sapiens"}, "[12]": {"system": "MKN-45 (Gastric Adenocarcinoma)", "assay": "Cell viability analysis, gastric cancer MKN-45", "settings": "for viability at 10 µM: Homo sapiens"}, "[13]": {"system": "HL-60 (Acute Promyelocytic Leukemia)", "assay": "Cell viability analysis, leukemia HL-60", "settings": "for viability at 10 µM: Homo sapiens"}, "[14]": {"settings": "drug 10 μM, 72 hours, WST-1, OD450 nm"}}, "note": "Where a name gives a salt, the structure may show the parent alone. Read-outs that look alike come from different tables or passages of the source."}
{"smiles": "CC1(C)[C@H](C(=O)[O-])N2C(=O)C[C@H]2S1(=O)=O.[Na+]", "note": "[Sulbactam sodium (Unasyn), Sulbactam sodium]", "values": [{"measurement": "inhibition effect on different cancer cell lines", "setting": "[1]", "value": "significant inhibition effect"}]}
{"smiles": "CCn1cc(C(=O)O)c(=O)c2cc(F)c(N3CCNC(C)C3)c(F)c21", "note": "(stereo not drawn) [Lomefloxacin hydrochloride (Maxaquin), Lomefloxacin hydrochloride]", "values": [{"measurement": "inhibition effect on different cancer cell lines", "setting": "[1]", "value": "significant inhibition effect"}]}
{"smiles": "CCCCCCCCCCCCCCCC(=O)O[C@@H]1[C@@H](O)[C@@H](O)[C@@H]([C@H](NC(=O)[C@@H]2C[C@@H](CCC)CN2C)[C@H](C)Cl)O[C@@H]1SC.Cl", "note": "[Clindamycin palmitate HCl]", "values": [{"measurement": "inhibition effect on different cancer cell lines", "setting": "[1]", "value": "significant inhibition effect"}]}
{"smiles": "C[C@H]1COc2c(N3CCN(C)CC3)c(F)cc3c(=O)c(C(=O)O)cn1c23", "note": "[Levofloxacin (Levaquin), Levofloxacin]", "values": [{"measurement": "viability at 10 µM", "setting": "[2]; 72 h, read-out: cell viability (survival rate), AGS, drug 10 μM, 72 hours, WST-1, OD450 nm", "value": 51.6, "unit": "%"}, {"measurement": "viability at 10 µM", "setting": "[3]; MCF7, 72 h, read-out: cell viability (survival rate), MCF7, drug 10 μM, 72 hours, WST-1, OD450 nm", "value": 43.9, "unit": "%"}, {"measurement": "viability at 10 µM", "setting": "[4]; A549, 72 h, read-out: cell viability (survival rate), A549, drug 10 μM, 72 hours, WST-1, OD450 nm", "value": 36.7, "unit": "%"}, {"measurement": "viability at 10 µM", "setting": "[5]; 72 h, read-out: cell viability (survival rate), HeLa, drug 10 μM, 72 hours, WST-1, OD450 nm", "value": 50.8, "unit": "%"}, {"measurement": "viability at 10 µM", "setting": "[6]; HepG2, 72 h, read-out: cell viability (survival rate), HepG2, drug 10 μM, 72 hours, WST-1, OD450 nm", "value": 88.4, "unit": "%"}, {"measurement": "viability at 10 µM", "setting": "[7]; 72 h, read-out: cell viability (survival rate), LoVo, drug 10 μM, 72 hours, WST-1, OD450 nm", "value": 62.6, "unit": "%"}, {"measurement": "viability at 10 µM", "setting": "[8]; NCI-H1650, 72 h, read-out: cell viability (survival rate), H1650, drug 10 μM, 72 hours, WST-1, OD450 nm", "value": 64.9, "unit": "%"}, {"measurement": "viability at 10 µM", "setting": "[9]; 72 h, read-out: cell viability (survival rate), PC3, drug 10 μM, 72 hours, WST-1, OD450 nm", "value": 29.6, "unit": "%"}, {"measurement": "viability at 10 µM", "setting": "[10]; 72 h, read-out: cell viability (survival rate), TSGH, drug 10 μM, 72 hours, WST-1, OD450 nm", "value": 41.8, "unit": "%"}, {"measurement": "viability at 10 µM", "setting": "[11]; A-375, 72 h, read-out: cell viability (survival rate), A375, drug 10 μM, 72 hours, WST-1, OD450 nm", "value": 39.3, "unit": "%"}, {"measurement": "viability at 10 µM", "setting": "[12]; MKN-45, 72 h, read-out: cell viability (survival rate), MKN-45, drug 10 μM, 72 hours, WST-1, OD450 nm", "value": 44.5, "unit": "%"}, {"measurement": "viability at 10 µM", "setting": "[13]; HL-60, 72 h, read-out: cell viability (survival rate), HL-60, drug 10 μM, 72 hours, WST-1, OD450 nm", "value": 93, "unit": "%"}]}
{"smiles": "CCOC(=O)CCC(=O)O[C@H]1[C@H](O[C@@H]2[C@@H](C)[C@H](O[C@H]3C[C@@](C)(OC)[C@@H](O)[C@H](C)O3)[C@@H](C)C(=O)O[C@H](CC)[C@@](C)(O)[C@H](O)[C@@H](C)C(=O)[C@H](C)C[C@@]2(C)O)O[C@H](C)C[C@@H]1N(C)C", "note": "[Erythromycin Ethylsuccinate]", "values": [{"measurement": "viability at 10 µM", "setting": "[2]; drug 10 μM, 72 hours, WST-1, OD450 nm, read-out: cell viability (survival rate), AGS", "value": 111, "unit": "%"}, {"measurement": "viability at 10 µM", "setting": "[3]; MCF7, drug 10 μM, 72 hours, WST-1, OD450 nm, read-out: cell viability (survival rate), MCF7", "value": 88.2, "unit": "%"}, {"measurement": "viability at 10 µM", "setting": "[4]; A549, drug 10 μM, 72 hours, WST-1, OD450 nm, read-out: cell viability (survival rate), A549", "value": 90, "unit": "%"}, {"measurement": "viability at 10 µM", "setting": "[5]; drug 10 μM, 72 hours, WST-1, OD450 nm, read-out: cell viability (survival rate), HeLa", "value": 148, "unit": "%"}, {"measurement": "viability at 10 µM", "setting": "[6]; HepG2, drug 10 μM, 72 hours, WST-1, OD450 nm, read-out: cell viability (survival rate), HepG2", "value": 97.1, "unit": "%"}, {"measurement": "viability at 10 µM", "setting": "[7]; drug 10 μM, 72 hours, WST-1, OD450 nm, read-out: cell viability (survival rate), LoVo", "value": 80, "unit": "%"}, {"measurement": "viability at 10 µM", "setting": "[8]; NCI-H1650, drug 10 μM, 72 hours, WST-1, OD450 nm, read-out: cell viability (survival rate), H1650", "value": 83.8, "unit": "%"}, {"measurement": "viability at 10 µM", "setting": "[9]; drug 10 μM, 72 hours, WST-1, OD450 nm, read-out: cell viability (survival rate), PC3", "value": 112, "unit": "%"}, {"measurement": "viability at 10 µM", "setting": "[10]; drug 10 μM, 72 hours, WST-1, OD450 nm, read-out: cell viability (survival rate), TSGH", "value": 125, "unit": "%"}, {"measurement": "viability at 10 µM", "setting": "[11]; A-375, drug 10 μM, 72 hours, WST-1, OD450 nm, read-out: cell viability (survival rate), A375", "value": 75, "unit": "%"}, {"measurement": "viability at 10 µM", "setting": "[12]; MKN-45, drug 10 μM, 72 hours, WST-1, OD450 nm, read-out: cell viability (survival rate), MKN-45", "value": 129, "unit": "%"}, {"measurement": "viability at 10 µM", "setting": "[13]; HL-60, drug 10 μM, 72 hours, WST-1, OD450 nm, read-out: cell viability (survival rate), HL-60", "value": 83.6, "unit": "%"}]}
{"smiles": "CN(C)CCCN1c2ccccc2CCc2ccc(Cl)cc21.Cl", "note": "[Clomipramine HCl (Anafranil)]", "values": [{"measurement": "cell viability (survival rate), AGS", "setting": "[2]; [14]", "value": 60.2}, {"measurement": "cell viability (survival rate), MCF7", "setting": "[3]; [14]", "value": 75.7}, {"measurement": "cell viability (survival rate), A549", "setting": "[4]; [14]", "value": 69.1}, {"measurement": "cell viability (survival rate), HeLa", "setting": "[5]; [14]", "value": 167.6}, {"measurement": "cell viability (survival rate), HepG2", "setting": "[6]; [14]", "value": 115.6}, {"measurement": "cell viability (survival rate), LoVo", "setting": "[7]; [14]", "value": 87.1}, {"measurement": "cell viability (survival rate), H1650", "setting": "[8]; [14]", "value": 47.5}, {"measurement": "cell viability (survival rate), PC3", "setting": "[9]; [14]", "value": 75.8}, {"measurement": "cell viability (survival rate), TSGH", "setting": "[10]; [14]", "value": 46.2}, {"measurement": "cell viability (survival rate), A375", "setting": "[11]; [14]", "value": 88.9}, {"measurement": "cell viability (survival rate), MKN-45", "setting": "[12]; [14]", "value": 70.5}, {"measurement": "cell viability (survival rate), HL-60", "setting": "[13]; [14]", "value": 82.7}]}
